Two compounds from patent publication US20240156767A1, “SCREENING METHOD FOR GLP-1 SECRETION REGULATION AGENT, GLP-1 SECRETION REGULATION AGENT, COMPOSITION FOR PREVENTING OR AMELIORATING DIABETES, OBESITY, POSTPRANDIAL HYPERGLYCEMIA, NEURODEGENERATIVE DISEASE, HYPOGLYCEMIA, ADIPOSITY, OR NESIDIOBLASTOSIS, METHOD FOR PROMOTING SECRETION OF GLP-1 IN …” (The Nisshin OilliO Group, Ltd., priority 2021, published 2024) can be followed below.

Holding throughout (format): in vivo
For experiment [1], the system named is GPR84 knockout mice. In words: Same test as Test 2 (glucose tolerance, plasma insulin) using GPR84 knockout mice, data not shown. Conditions: effect lower than with wild-type mice. An excerpt: However, the increasing effect was lower than with wild-type mice. […] It was inferred that the total insulin secretion was reduced compared with that of wild-type mice.

For experiment [2], the system named is GPR84 knockout mice. In words: Administration test: plasma GLP-1 concentration in GPR84 knockout mice (ELISA). Conditions: GPR84KO mice; 1000 mg/kg oral; 120 minutes after administration; mean±standard error. As for the experimental part:
An administration test was carried out by the following method to examine an effect of administration of various medium chain fatty acids (capric acid or lauric acid, both are a free form) to mice on plasma GLP-1 secretion. The above medium chain fatty acids correspond to GPR84 agonists. A control sample (carboxymethylcellulose), a capric acid sample, and a lauric acid sample were prepared in the same manner as in the <Test 2> above. Based on the following method, any one of a control sample, a capric acid sample, and a lauric acid sample was administered to mice in each group. In this test, two types of mice, that is, wild-type mice and GPR84 knockout mice, were prepared. As wild-type mice, 18 C57BL/6 male mice at 7- to 9-weeks old (purchased from Japan SLC, Inc.) were used. […] Plasma was prepared by a conventional method from the blood obtained before and after sample administration, and the plasma GLP-1 concentration (pM) was measured. The plasma GLP-1 concentration was measured by ELISA using a commercially available kit (trade name “Glucagon Like Peptide-1 (Active) ELIS”, manufactured by Sigma-Aldrich). The data in FIG. 3 and Table 3 are expressed as relative values (Relative GLP-1) when the average value of plasma GLP-1 concentration before administration of each sample is set to “1”, and expressed as “mean±standard error of the relative values”. […]
(In general: In an ELISA, binding on a coated surface is turned into a signal by an enzyme label.)

For experiment [3], the system named is C57BL/6 male mice. The experiment is described as follows: Glucose tolerance test in mice: plasma insulin concentration (ELISA). Conditions: 1000 mg/kg oral; for Plasma insulin concentration: glucose 2.5 g/kg 60 minutes after sample, blood 30 minutes after glucose, mean±standard error; for Effect on plasma insulin concentration (in words): wild-type mice, glucose tolerance test. As for the experimental part: A glucose tolerance test was carried out by the following method to examine the effect by administration of various medium chain fatty acids (capric acid or lauric acid, both are a free body) to mice on plasma insulin secretion at that time. Note here that the above-mentioned medium chain fatty acid corresponds to a GPR84 agonist. Ten tablets of PBS (trade name “Phosphate Buffered Salts Tablets”, manufactured by Takara Bio Inc.) were dissolved in distilled water, and the total volume was adjusted to 1000 ml. To 10 ml of the prepared solution, 50 mg of carboxymethyl cellulose (trade name “Carboxymethyl cellulose sodium”, manufactured by FUJIFILM Wako Pure Chemical Industries, Ltd.) was added and mixed to obtain a carrier solution. To the obtained carrier solution, 2 g of capric acid (trade name “Decanoic acid”, manufactured by FUJIFILM Wako Pure Chemical Industries, Ltd.) was added, and mixed while heating to obtain a capric acid sample. A carrier solution was obtained in the same manner as in the (1-2) above. To the obtained carrier solution, 2 g of lauric acid (trade name “Dodecanoic acid”, manufactured by Sigma-Aldrich) was added and mixed while heating to obtain a lauric acid sample. Ten tablets of PBS (trade name “Phosphate Buffered Salts Tablets”, manufactured by Takara Bio Inc.) were dissolved in distilled water, and the total amount was adjusted to 1000 ml. To 10 ml of the prepared solution, 2.5 g of glucose (trade name “D(+)-glucose”, manufactured by FUJIFILM Wako Pure Chemical Industries, Ltd.) was added to obtain a glucose liquid. Based on the following method, any one of a control sample, a capric acid sample, and a lauric acid sample was administered to mice in each group, and then a glucose solution was further administered to carry out a glucose tolerance test. C57BL/6 male mice at 7- to 9-weeks old were purchased from Japan SLC, Inc. Each mouse (15 mice in total) was acclimatized for 1 week and then divided into three groups (a control sample administration group, a capric acid sample administration group, and a lauric acid sample administration group) so that the average body weight was uniform. […] Plasma was prepared from the obtained blood by a conventional method, and the plasma insulin concentration (pg/ml) was measured. The plasma insulin concentration was measured by ELISA using a commercially available kit (trade name “Revis (trademark) Insulin-Mouse (RTU)”, manufactured by Fujifilm Wako Shibayagi Co., Ltd.). In the data of FIG. 2 and Table 2, the measured value of the plasma insulin concentration was expressed as “mean±standard error”. Dunnet's test was used to test significant differences between trials, and significant differences were determined to exist when the risk rate was less than 5% (*p<0.05).

`CCCCCCCCCC(=O)O` [Capric acid, capric acid (n-decanoic acid)]: the “Effect on plasma insulin concentration (in words)” value in experiment [1] was “increased the plasma insulin concentration”. Also, in experiment [2], the “Relative GLP-1 (plasma GLP-1 concentration relative to before administration = 1)” value stood at 0.63 ± 0.2. In experiment [3], the Plasma insulin concentration is 395.1 ± 26.1 * pg/ml and the “Effect on plasma insulin concentration (in words)” value is given as “significantly increased plasma insulin concentrations”.
On the same counts, the results for `CCCCCCCCCCCC(=O)O` [Lauric acid, lauric acid] are “increased the plasma insulin concentration”, 0.68 ± 0.19, 702.8 ± 84.4 * pg/ml and “significantly increased plasma insulin concentrations”.
